Measurements reported in the NIST ThermoML archive (doi:10.1016/j.tca.2012.02.002).
± gives the expanded uncertainty stated by the source.

Test: molar heat capacity at constant pressure
Conditions: 101.33 kPa, Crystal

O=P([O-])([O-])[O-].[Er+3] [erbium phosphate]
Conditions | molar heat capacity at constant pressure [J/K/mol]
48.02 K, Vacuum adiabatic calorimetry | 18.68 ± 0.08
49.64 K, Vacuum adiabatic calorimetry | 19.56 ± 0.08
50 K, Drop calorimetry | 19.7 ± 0.59
51.27 K, Vacuum adiabatic calorimetry | 20.45 ± 0.08
52.9 K, Vacuum adiabatic calorimetry | 21.35 ± 0.08
54.54 K, Vacuum adiabatic calorimetry | 22.23 ± 0.09
55 K, Drop calorimetry | 22.45 ± 0.67
56.17 K, Vacuum adiabatic calorimetry | 23.13 ± 0.09
57.81 K, Vacuum adiabatic calorimetry | 24.03 ± 0.09
59.46 K, Vacuum adiabatic calorimetry | 24.96 ± 0.09
60 K, Drop calorimetry | 25.28 ± 0.76
61.11 K, Vacuum adiabatic calorimetry | 25.9 ± 0.09
62.76 K, Vacuum adiabatic calorimetry | 26.86 ± 0.09
64.41 K, Vacuum adiabatic calorimetry | 27.81 ± 0.1
65 K, Drop calorimetry | 28.13 ± 0.84
66.06 K, Vacuum adiabatic calorimetry | 28.75 ± 0.1
67.72 K, Vacuum adiabatic calorimetry | 29.67 ± 0.1
69.38 K, Vacuum adiabatic calorimetry | 30.58 ± 0.1
70 K, Drop calorimetry | 30.96 ± 0.93
71.24 K, Vacuum adiabatic calorimetry | 31.56 ± 0.1
73.31 K, Vacuum adiabatic calorimetry | 32.73 ± 0.11
75 K, Drop calorimetry | 33.73 ± 1
75.38 K, Vacuum adiabatic calorimetry | 33.9 ± 0.11
77.44 K, Vacuum adiabatic calorimetry | 35.09 ± 0.11
78.64 K, Vacuum adiabatic calorimetry | 35.5 ± 0.11
79.51 K, Vacuum adiabatic calorimetry | 36.27 ± 0.11
80 K, Drop calorimetry | 36.43 ± 1.1
81 K, Vacuum adiabatic calorimetry | 37.03 ± 0.11
81.57 K, Vacuum adiabatic calorimetry | 37.33 ± 0.12
83.05 K, Vacuum adiabatic calorimetry | 38 ± 0.12
83.64 K, Vacuum adiabatic calorimetry | 38.24 ± 0.12
85 K, Drop calorimetry | 39.03 ± 1.2
85.11 K, Vacuum adiabatic calorimetry | 38.94 ± 0.12
85.72 K, Vacuum adiabatic calorimetry | 39.22 ± 0.12
87.17 K, Vacuum adiabatic calorimetry | 40.21 ± 0.12
87.79 K, Vacuum adiabatic calorimetry | 40.58 ± 0.12
89.22 K, Vacuum adiabatic calorimetry | 41.36 ± 0.12
89.86 K, Vacuum adiabatic calorimetry | 41.58 ± 0.12
90 K, Drop calorimetry | 41.53 ± 1.2
91.28 K, Vacuum adiabatic calorimetry | 42.3 ± 0.24
91.94 K, Vacuum adiabatic calorimetry | 42.51 ± 0.24
93.33 K, Vacuum adiabatic calorimetry | 43.21 ± 0.24
94.02 K, Vacuum adiabatic calorimetry | 43.42 ± 0.24
95 K, Drop calorimetry | 43.93 ± 1.3
95.39 K, Vacuum adiabatic calorimetry | 44.16 ± 0.24
96.11 K, Vacuum adiabatic calorimetry | 44.4 ± 0.24
97.45 K, Vacuum adiabatic calorimetry | 45.11 ± 0.25
99.5 K, Vacuum adiabatic calorimetry | 46.06 ± 0.25
100 K, Drop calorimetry | 46.24 ± 1.4
102.17 K, Vacuum adiabatic calorimetry | 47.11 ± 0.25
105.46 K, Vacuum adiabatic calorimetry | 48.46 ± 0.25
108.74 K, Vacuum adiabatic calorimetry | 50.01 ± 0.25
110 K, Drop calorimetry | 50.59 ± 1.5
112.02 K, Vacuum adiabatic calorimetry | 51.4 ± 0.25
115.31 K, Vacuum adiabatic calorimetry | 52.75 ± 0.25
118.6 K, Vacuum adiabatic calorimetry | 54.1 ± 0.25
120 K, Drop calorimetry | 54.66 ± 1.6
121.89 K, Vacuum adiabatic calorimetry | 55.38 ± 0.26
125.18 K, Vacuum adiabatic calorimetry | 56.65 ± 0.26
128.48 K, Vacuum adiabatic calorimetry | 57.9 ± 0.26
130 K, Drop calorimetry | 58.5 ± 1.8
131.77 K, Vacuum adiabatic calorimetry | 59.15 ± 0.26
135.06 K, Vacuum adiabatic calorimetry | 60.36 ± 0.26
138.35 K, Vacuum adiabatic calorimetry | 61.56 ± 0.26
140 K, Drop calorimetry | 62.15 ± 1.9
141.64 K, Vacuum adiabatic calorimetry | 62.75 ± 0.26
144.92 K, Vacuum adiabatic calorimetry | 63.93 ± 0.26
148.21 K, Vacuum adiabatic calorimetry | 65.06 ± 0.27
150 K, Drop calorimetry | 65.63 ± 2
151.5 K, Vacuum adiabatic calorimetry | 66.19 ± 0.27
154.79 K, Vacuum adiabatic calorimetry | 67.31 ± 0.27
158.07 K, Vacuum adiabatic calorimetry | 68.34 ± 0.27
160 K, Drop calorimetry | 68.95 ± 2.1
161.36 K, Vacuum adiabatic calorimetry | 69.45 ± 0.27
164.64 K, Vacuum adiabatic calorimetry | 70.45 ± 0.27
167.92 K, Vacuum adiabatic calorimetry | 71.48 ± 0.27
170 K, Drop calorimetry | 72.09 ± 2.2
171.18 K, Vacuum adiabatic calorimetry | 72.5 ± 0.27
174.46 K, Vacuum adiabatic calorimetry | 73.47 ± 0.27
177.73 K, Vacuum adiabatic calorimetry | 74.42 ± 0.27
180 K, Drop calorimetry | 75.06 ± 2.2
181 K, Vacuum adiabatic calorimetry | 75.35 ± 0.28
184.26 K, Vacuum adiabatic calorimetry | 76.23 ± 0.28
187.53 K, Vacuum adiabatic calorimetry | 77.14 ± 0.28
190 K, Drop calorimetry | 77.87 ± 2.3
190.79 K, Vacuum adiabatic calorimetry | 77.99 ± 0.28
194.05 K, Vacuum adiabatic calorimetry | 78.87 ± 0.28
197.31 K, Vacuum adiabatic calorimetry | 79.82 ± 0.28
200 K, Drop calorimetry | 80.51 ± 2.4
200.56 K, Vacuum adiabatic calorimetry | 80.61 ± 0.28
204.21 K, Vacuum adiabatic calorimetry | 81.51 ± 0.28
208.26 K, Vacuum adiabatic calorimetry | 82.53 ± 0.28
210 K, Drop calorimetry | 83.03 ± 2.5
212.31 K, Vacuum adiabatic calorimetry | 83.53 ± 0.28
216.35 K, Vacuum adiabatic calorimetry | 84.52 ± 0.28
220 K, Drop calorimetry | 85.43 ± 2.6
220.38 K, Vacuum adiabatic calorimetry | 85.53 ± 0.29
228.3 K, Vacuum adiabatic calorimetry | 87.52 ± 0.29
230 K, Drop calorimetry | 87.73 ± 2.6
232.31 K, Vacuum adiabatic calorimetry | 88.39 ± 0.29
236.31 K, Vacuum adiabatic calorimetry | 89.17 ± 0.29
240 K, Drop calorimetry | 89.95 ± 2.7
240.3 K, Vacuum adiabatic calorimetry | 90.08 ± 0.29
244.27 K, Vacuum adiabatic calorimetry | 90.89 ± 0.29
248.24 K, Vacuum adiabatic calorimetry | 91.71 ± 0.29
250 K, Drop calorimetry | 92.08 ± 2.8
252.19 K, Vacuum adiabatic calorimetry | 92.54 ± 0.29
256.13 K, Vacuum adiabatic calorimetry | 93.34 ± 0.29
260 K, Drop calorimetry | 94.13 ± 2.8
260.05 K, Vacuum adiabatic calorimetry | 94.13 ± 0.29
263.96 K, Vacuum adiabatic calorimetry | 94.97 ± 0.3
267.82 K, Vacuum adiabatic calorimetry | 95.68 ± 0.3
270 K, Drop calorimetry | 96.08 ± 2.9
271.7 K, Vacuum adiabatic calorimetry | 96.34 ± 0.3
275.56 K, Vacuum adiabatic calorimetry | 97.1 ± 0.3
279.36 K, Vacuum adiabatic calorimetry | 97.78 ± 0.3
280 K, Drop calorimetry | 97.93 ± 2.9
283.13 K, Vacuum adiabatic calorimetry | 98.4 ± 0.3
286.87 K, Vacuum adiabatic calorimetry | 99.05 ± 0.3
290 K, Drop calorimetry | 99.69 ± 3
290.33 K, Vacuum adiabatic calorimetry | 99.68 ± 0.3
294.03 K, Vacuum adiabatic calorimetry | 100.3 ± 0.3
297.69 K, Vacuum adiabatic calorimetry | 101 ± 0.3
300 K, Drop calorimetry | 101.4 ± 3
301.33 K, Vacuum adiabatic calorimetry | 101.7 ± 0.3
305.3 K, Vacuum adiabatic calorimetry | 102.4 ± 0.3
310 K, Drop calorimetry | 103 ± 3.1
311.36 K, Vacuum adiabatic calorimetry | 103.5 ± 0.3
318.34 K, Vacuum adiabatic calorimetry | 104.6 ± 0.3
320 K, Drop calorimetry | 104.8 ± 3.1
325.26 K, Vacuum adiabatic calorimetry | 105.6 ± 0.3
330 K, Drop calorimetry | 106.5 ± 3.2
332.11 K, Vacuum adiabatic calorimetry | 106.5 ± 0.3
338.88 K, Vacuum adiabatic calorimetry | 107.5 ± 0.3
340 K, Drop calorimetry | 108.2 ± 3.2
345.58 K, Vacuum adiabatic calorimetry | 108.5 ± 0.3
350 K, Drop calorimetry | 109.8 ± 3.3
400 K, Drop calorimetry | 116.9 ± 3.5
450 K, Drop calorimetry | 122.8 ± 3.7
500 K, Drop calorimetry | 127.7 ± 3.8
550 K, Drop calorimetry | 131.8 ± 4
600 K, Drop calorimetry | 135.4 ± 4.1
650 K, Drop calorimetry | 138.4 ± 4.2
700 K, Drop calorimetry | 141 ± 4.2
750 K, Drop calorimetry | 143.3 ± 4.3
800 K, Drop calorimetry | 145.3 ± 4.4
850 K, Drop calorimetry | 147.1 ± 4.4
900 K, Drop calorimetry | 148.8 ± 4.5
950 K, Drop calorimetry | 150.2 ± 4.5
1000 K, Drop calorimetry | 151.6 ± 4.5
1050 K, Drop calorimetry | 152.8 ± 4.6
1100 K, Drop calorimetry | 154 ± 4.6
1150 K, Drop calorimetry | 155.1 ± 4.7
1200 K, Drop calorimetry | 156.1 ± 4.7
1250 K, Drop calorimetry | 157.1 ± 4.7
1300 K, Drop calorimetry | 158.1 ± 4.7
1350 K, Drop calorimetry | 158.9 ± 4.8
1400 K, Drop calorimetry | 159.8 ± 4.8
1450 K, Drop calorimetry | 160.6 ± 4.8
1500 K, Drop calorimetry | 161.4 ± 4.8
1550 K, Drop calorimetry | 162.2 ± 4.9
1600 K, Drop calorimetry | 162.9 ± 4.9
